Test results reported in US6603025B1, “Method of production of benzofuranone oximes” (Bayer Aktiengesellschaft, priority 1999, dated 2003).

Columns and labels:
[1] = log P; format: physicochemical
[2] = Table 1, benzofuranyl alkanoates prepared analogously to Example 3
[3] = stated in text after the preparation example
[4] = table of benzofuranone oximes prepared analogously to Example 2

| logP [1, 2] | melting point | logP [1, 4] | other results | Structure (SMILES) |
| --- | --- | --- | --- | --- |
| 3.09 | 32 to 36 °C | – | – | CC(=O)Oc1coc2cc(C)ccc12 [Example 7] |
| – | – | – | logP [1, 3]: 1.44 | O/N=C1\COc2ccccc21 [Example 2] |
| 3.38 | 27 °C | – | – | CC(=O)Oc1coc2cc(C(F)(F)F)ccc12 [Example 6] |
| 2.65 | – | – | – | COc1ccc2c(OC(C)=O)coc2c1 [Example 8] |
| – | 150 °C (dec.) | 2.38 | – | O/N=C1\COc2cc(C(F)(F)F)ccc21 [Example 11] |
| – | – | 1.52 | – | COc1ccc2c(c1)OC/C2=N\O [Example 13] |
| – | – | – | logP [1, 3]: 2.38 | CO/N=C1\COc2ccccc21 [Example 1, O-methyl benzofuran oxime] |
| – | – | 1.79 | – | Cc1ccc2c(c1)OC/C2=N\O [Example 12] |
